These results are taken from ChEMBL document CHEMBL5154700, “Discovery of Gut-Restricted Small-Molecule Inhibitors of Intestinal Sodium-Dependent Phosphate Transport Protein 2b (NaPi2b) for the Treatment of Hyperphosphatemia” (J Med Chem, 2022).

The nature of data set [1]: Cmax in CRL:CD(SD) rat at 10 mg/kg, po by LC-MS/MS analysis. The data set is classed as ADME, organism-based. Set-up: dose 10 mg/kg, route po. The following applies: in vivo.
Data set [2] in a line: AUC (0 to t) in CRL:CD(SD) rat at 10 mg/kg, po by LC-MS/MS analysis. Also noted: dose 10 mg/kg, route po. The format is ADME, organism-based. The following applies: in vivo.
Data set [3] can be described thus: Oral bioavailability in CRL:CD(SD) rat at 10 mg/kg by LC-MS/MS analysis. The data set is classed as ADME, organism-based. The following applies: in vivo.
Data set [4] in a line: Drug concentration in CRL:CD(SD) rat plasma at 30 mg/kg, po measured after 6 hrs by LC-MS/MS analysis. The format is ADME, organism-based.
Data set [5] can be described thus: Drug concentration in CRL:CD(SD) rat lung at 30 mg/kg, po measured after 6 hrs by LC-MS/MS analysis. The format is ADME, organism-based. The following applies: read-out: Ct.
Data set [6] can be described thus: Passive permeability of the compound across apical to basolateral at 100 uM incubated for 5 hrs by PAMPA assay. The following applies: read-out: permeability. The data set is classed as ADME.
Data set [7] concerns the target T1, Sodium-dependent phosphate transport protein 2B (Homo sapiens, UniProt O95436).
T1 sequence (O95436 whole entry): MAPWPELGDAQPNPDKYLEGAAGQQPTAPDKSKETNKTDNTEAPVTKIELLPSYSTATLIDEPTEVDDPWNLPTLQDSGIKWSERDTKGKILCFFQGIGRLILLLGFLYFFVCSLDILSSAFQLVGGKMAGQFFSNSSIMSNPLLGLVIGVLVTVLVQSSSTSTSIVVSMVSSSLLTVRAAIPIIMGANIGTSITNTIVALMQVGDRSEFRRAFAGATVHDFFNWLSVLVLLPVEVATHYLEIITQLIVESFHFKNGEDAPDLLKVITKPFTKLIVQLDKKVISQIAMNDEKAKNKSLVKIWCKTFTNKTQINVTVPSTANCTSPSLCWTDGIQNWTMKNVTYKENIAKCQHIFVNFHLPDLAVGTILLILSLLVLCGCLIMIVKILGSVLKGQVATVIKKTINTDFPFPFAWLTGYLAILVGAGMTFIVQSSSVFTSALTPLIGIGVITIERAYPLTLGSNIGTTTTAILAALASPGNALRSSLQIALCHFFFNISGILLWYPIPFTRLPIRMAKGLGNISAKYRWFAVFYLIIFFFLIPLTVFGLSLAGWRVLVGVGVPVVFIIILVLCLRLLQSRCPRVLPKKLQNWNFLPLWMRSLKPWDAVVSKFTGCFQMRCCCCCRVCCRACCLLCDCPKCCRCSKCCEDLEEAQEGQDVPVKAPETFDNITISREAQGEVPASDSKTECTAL
The data set is described as follows: Inhibition of human NaPi2b expressed in KJMGER8 cells assessed as reduction in H2[33P]O4 uptake incubated for 60 mins by TopCount scintillation counting method. The data set is classed as cell-based.

A short description of data set [8]: Solubility of compound in phosphate buffer at pH 7.4. The format is physicochemical.
Data set [9] in a line: Ratio of drug level in lung to plasma in CRL:CD(SD) rat at 30 mg/kg, po measured after 7 hrs by LC-MS/MS. The format is ADME, organism-based. To be noted: lung and plasma.
The nature of data set [10]: Drug concentration in CRL:CD(SD) rat plasma at 30 mg/kg, po measured after 7 hrs by LC-MS/MS analysis. The format is ADME, organism-based.
Data set [11] in a line: Drug concentration in CRL:CD(SD) rat lung at 30 mg/kg, po measured after 7 hrs by LC-MS/MS analysis. The data set is classed as ADME, organism-based. The following applies: read-out: Ct.
Data set [12] can be described thus: Cmax in CRL:CD(SD) rat at 30 mg/kg, po measured after 7 hrs by LC-MS/MS analysis. The data set is classed as ADME, organism-based. Set-up: dose 30 mg/kg, time 7 hrs, route po. The following applies: in vivo.
A short description of data set [13]: Half life in CRL:CD(SD) rat at 30 mg/kg, po measured after 7 hrs by LC-MS/MS analysis. The data set is classed as ADME, organism-based. To be noted: in vivo.
Data set [14] can be described thus: AUC (0 to t) in CRL:CD(SD) rat at 30 mg/kg, po measured after 7 hrs by LC-MS/MS analysis. The data set is classed as ADME, organism-based. Also noted: time 7 hrs, dose 30 mg/kg, route po. To be noted: in vivo.
Data set [15] is described as follows: AUC(0 to infinity) in CRL:CD(SD) rat at 30 mg/kg, po measured after 7 hrs by LC-MS/MS analysis. The format is ADME, organism-based. Also noted: dose 30 mg/kg, time 7 hrs, route po. To be noted: in vivo.
The nature of data set [16]: Mean residence time in CRL:CD(SD) rat at 30 mg/kg, po measured after 7 hrs by LC-MS/MS analysis. To be noted: in vivo. The format is ADME, organism-based.
Data set [17] in a line: Oral bioavailability in CRL:CD(SD) rat at 30 mg/kg measured after 7 hrs by LC-MS/MS analysis. The following applies: in vivo. The data set is classed as ADME, organism-based.
Data set [18] is described as follows: Inhibition of phosphate uptake in CRL:CD(SD) rat small intestine in at 0.1 mg treated through intrajejunal after 30 mins by In-situ closed-loop method. To be noted: in vivo, other, 0.5 h.

Molecules are shown by their SMILES. In brackets after ≈: the same amount, converted by molar mass.

In turn, `CCN(CC)CCCN(C)Cc1cccc(C(=O)Nc2sc3c(c2C(=O)N/N=C/c2ccc(Cl)c(C(F)(F)F)c2)CCN(C2CC2)C3)c1` showed a Cmax in data set [1] of 3.59 ng/mL. In addition, the AUC(0-t) in data set [2] was found to be 10.4 ng·h/mL. The same molecule yielded a bioavailability in data set [3] of 0.96%. The concentration at 6 h in [4] amounted to 1.86 ng/mL; in data set [5] it was 6350 ng/g.
Turning to `CCN(CC)CCOCCOCCOc1cccc(C(=O)Nc2sc3c(c2C(=O)N/N=C/c2ccc(Cl)c(C(F)(F)F)c2)CCN(C2CC2)C3)c1`, the Papp at 5 h, 100 µM in [6] amounted to 0.23 ×10⁻⁶ cm/s. Further, the IC50 in data set [7] amounted to 315 nM. This molecule also showed a solubility in data set [8] of 82 µM (≈ 61.5 µg/mL).
With `CCN(CC)CCOCCOCCOc1cccc(C(=O)Nc2sc3c(c2C(=O)N/N=C/c2ccc(Cl)c(C(F)(F)F)c2)CCC(C)(C)C3)c1`, the Papp at 5 h, 100 µM in [6] is below 0.025 ×10⁻⁶ cm/s. In data set [7], the IC50 came to 40 nM. For the same molecule, in [8], the solubility was 55 µM (≈ 40.6 µg/mL). The partition ratio (Kp) at 7 h in [9] was found to be 130.
In the case of `COCCN(CCOCCOCCOCCOCCOCCOCc1cccc(C(=O)Nc2sc3c(c2C(=O)N/N=C/c2ccc(Cl)c(C(F)(F)F)c2)CCC(C)(C)C3)c1)CC(=O)O`, the Papp at 5 h, 100 µM in data set [6] was below 0.025 ×10⁻⁶ cm/s. In addition, the IC50 in data set [7] was 64 nM. Further, the solubility in data set [8] amounted to 122 µM (≈ 115 µg/mL). The results for the concentration at 7 h in data set [10] and in [11] were below 0.3 ng/mL and below 1.5 ng/g, respectively. In data set [12], this molecule showed a Cmax of 0.444 ng/mL. In [13], this molecule had a half-life of 3.53 h. In addition, the exposure AUC(0-t) at 7 h in data set [14] was found to be 0.665 ng·h/mL. The same molecule registered an area under the curve AUC(0-inf) in data set [15] of 2.62 ng·h/mL. This molecule returned a mean residence time (MRT) in data set [16] of 5.25 h. The molecule also registered a bioavailability in [17] of 0.1%. The “inhibition (INH)” value in data set [18] turned out to be 17%.
For the molecule `O=C(Nc1sc2c(c1C(=O)N/N=C/c1ccc(Cl)c(C(F)(F)F)c1)CCCC2)c1cccc(CN2CCC(O)CC2)c1`, the IC50 in data set [7] turned out to be 87 nM. The molecule further registered a solubility in data set [8] of 0.1 µM (≈ 0.0619 µg/mL).
`CCN(CC)C[C@@H](O)COCCOCCOCCOc1cccc(C(=O)Nc2sc3c(c2C(=O)N/N=C/c2ccc(Cl)c(C(F)(F)F)c2)CCC(C)(C)C3)c1`: the Kp at 7 h in data set [9] is 428.
With `CC1(C)CCc2c(sc(NC(=O)c3cccc(OCCOCCOCCOC[C@H](O)CN(CCO)CCO)c3)c2C(=O)N/N=C/c2ccc(Cl)c(C(F)(F)F)c2)C1`, in data set [7], the IC50 is 83 nM. In data set [8], the solubility turned out to be 76 µM (≈ 64.1 µg/mL). Further, the partition ratio (Kp) at 7 h in data set [9] is 44.
